In ChEMBL document CHEMBL2086378, “Eudesmane-type sesquiterpenoid and guaianolides from Kandelia candel in a screening program for compounds to overcome TRAIL resistance” (2012):

Columns and labels:
Format in all cases: functional
[1] = system: AGS; assay: Cytotoxicity against TRAIL-resistant human AGS cells assessed as inhibition of cell viability at 17.5 uM after 24 hrs by fluorescence assay in presence of 100 ng/ml TRAIL relative to in absence of TRAIL
[2] = system: AGS; assay: Cytotoxicity against TRAIL-resistant human AGS cells assessed as inhibition of cell viability at 50 uM after 24 hrs by fluorescence assay in presence of 100 ng/ml TRAIL relative to in absence of TRAIL
[3] = system: AGS; assay: Cytotoxicity against TRAIL-resistant human AGS cells assessed as inhibition of cell viability at 10 uM after 24 hrs by fluorescence assay in presence of 100 ng/ml TRAIL relative to in absence of TRAIL
[4] = system: AGS; assay: Cytotoxicity against TRAIL-resistant human AGS cells assessed as inhibition of cell viability at 80 uM after 24 hrs by fluorescence assay in presence of 100 ng/ml TRAIL relative to in absence of TRAIL

O=c1cc(-c2ccc(O)c(O)c2)oc2cc(O)cc(O)c12 [LUTEOLIN]
inhibition (INH) [1]: 48%

CC(=O)O[C@H]1CC(C)=C2C(=O)C=C(C)[C@@H]2[C@H]2OC(=O)[C@@H](C)[C@@H]21
inhibition (INH) [2]: 23%

C/C=C(\C)C(=O)O[C@H]1CC(C)=C2C(=O)C=C(C)[C@@H]2[C@H]2OC(=O)[C@@H](C)[C@@H]21 [MEHIRUGIN B]
inhibition (INH) [3]: 27%

C=C(C(=O)OC)[C@@H]1CC[C@@]2(C)C=CC(=O)C(C)=C2C1
inhibition (INH) [4]: 29%
